Data from paper PMC2905478 (Peptides, 2010).
Read-outs that look alike come from different tables or passages of the source. *1 amine or outer side, *2 acyl side, *3 side chain or, on linkers, in order; H or OH if unused. Where a SMILES comes first, the peptide text is derived from it. [ ]: non-standard residue; d: D form. X1 = O=C(C[C@@H](N[*:1])c1ccc(Cl)cc1)[*:2]; β3hPhg = O=C(C[C@@H](N[*:1])c1ccccc1)[*:2]; Nle = CCCC[C@H](N)C(=O)O

Experiments:
hBRS-3 [1] = target: T1, hBRS-3 (Homo sapiens, UniProt P32247); settings: for affinities from binding studies for the hBRS-3 receptor, range over 3 cell lines: 3 hBRS-3 cell lines (NC-N417, Balb, H1299)
T1 sequence (P32247 whole entry): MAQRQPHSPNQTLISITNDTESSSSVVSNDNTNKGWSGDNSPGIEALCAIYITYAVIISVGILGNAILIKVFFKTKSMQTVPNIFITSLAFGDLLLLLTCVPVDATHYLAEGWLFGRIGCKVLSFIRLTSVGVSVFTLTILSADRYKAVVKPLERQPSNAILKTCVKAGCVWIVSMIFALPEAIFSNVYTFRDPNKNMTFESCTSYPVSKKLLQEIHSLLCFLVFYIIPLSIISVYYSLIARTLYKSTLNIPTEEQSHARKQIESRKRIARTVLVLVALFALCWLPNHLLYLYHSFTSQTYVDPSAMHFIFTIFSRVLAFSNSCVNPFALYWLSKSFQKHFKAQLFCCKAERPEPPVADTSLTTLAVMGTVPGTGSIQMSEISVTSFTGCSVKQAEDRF

hBRS-3 [2] = target: T1, hBRS-3; settings: binding; hBRS-3 containing cells (H1299, Balb; Tables 2 and 3)
hBRS-3 [3] = target: T1, hBRS-3; settings: binding affinities
hGRPR [4] = target: T2, hGRPR (Homo sapiens, UniProt P30550); settings: binding, HuTu-80 cells, native hGRPR
T2 sequence (P30550 whole entry): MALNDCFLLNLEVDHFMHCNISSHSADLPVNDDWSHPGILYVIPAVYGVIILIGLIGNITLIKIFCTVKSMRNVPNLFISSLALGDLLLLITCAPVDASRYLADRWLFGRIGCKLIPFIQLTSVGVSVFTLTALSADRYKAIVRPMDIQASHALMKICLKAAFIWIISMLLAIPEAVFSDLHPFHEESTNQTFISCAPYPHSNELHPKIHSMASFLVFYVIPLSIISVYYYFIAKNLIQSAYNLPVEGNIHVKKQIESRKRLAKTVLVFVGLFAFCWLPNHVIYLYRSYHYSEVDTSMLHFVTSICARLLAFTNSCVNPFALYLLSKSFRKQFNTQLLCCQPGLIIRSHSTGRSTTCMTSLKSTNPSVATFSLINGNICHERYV

hNMBR [5] = target: T3, hNMBR (Homo sapiens, UniProt P28336); settings: binding; hNMBR/H1299 and hNMBR/Balb cells
T3 sequence (P28336 whole entry): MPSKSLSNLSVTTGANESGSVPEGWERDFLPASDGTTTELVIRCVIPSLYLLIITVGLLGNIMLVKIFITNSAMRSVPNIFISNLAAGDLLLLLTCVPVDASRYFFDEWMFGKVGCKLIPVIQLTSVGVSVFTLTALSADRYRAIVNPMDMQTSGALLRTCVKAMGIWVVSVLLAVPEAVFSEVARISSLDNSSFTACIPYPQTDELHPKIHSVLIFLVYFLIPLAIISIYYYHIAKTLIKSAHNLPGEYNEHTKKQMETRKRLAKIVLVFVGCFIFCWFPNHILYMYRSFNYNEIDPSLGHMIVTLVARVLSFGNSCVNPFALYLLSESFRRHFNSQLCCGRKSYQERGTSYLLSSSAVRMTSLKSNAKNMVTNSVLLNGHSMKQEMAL

hBRS-3 [6] = target: T1, hBRS-3; settings: for agonist efficacy for [3H]IP generation (full/partial agonist): each of the hBRS-3 containing cells, concentrations up to 10,000 nM; for fold less potent than peptide #1 at activating PLC: range over three hBRS-3 containing cells
hBRS-3 [7] = target: T1, hBRS-3; test: biochemical; settings: IC50 (nM) hBRS-3/N417, half-maximal inhibition of binding; 50 pM radioligand, 22 °C, 60 min
hNMBR [8] = target: T3, hNMBR; test: biochemical
hNMBR [9] = target: T3, hNMBR; test: biochemical; settings: IC50 (nM) hNMBR/H1299, half-maximal inhibition of binding
hGRPR [10] = target: T2, hGRPR; test: Stimulation of [3H]IP generation; settings: for fold less potent than peptide #1 at activating PLC: hGRPR containing HuTu-80 and Balb cells
hGRPR [11] = target: T2, hGRPR; test: Stimulation of [3H]IP generation
hNMBR [12] = target: T3, hNMBR; test: Stimulation of [3H]IP generation
hNMBR [13] = target: T3, hNMBR; test: Stimulation of [3H]IP generation; settings: for fold less potent than peptide #1 at activating PLC: hNMBR containing H1299 and Balb cells

Row | SMILES | affinities from binding studies for the hBRS-3 receptor, range over 3 cell lines (hBRS-3 [1]) | fold lower affinity than peptide #1, range over hBRS-3 cell lines (hBRS-3 [2]) | fold lower affinity than GRP or peptide #1 (hGRPR [4]) [fold] | fold lower affinity than NMB (and peptide #1) (hNMBR [5]) | agonist efficacy for [3H]IP generation (full/partial agonist) (hBRS-3 [6]) | fold less potent than peptide #1 at activating PLC (hBRS-3 [6]) | fold less potent than peptide #1 at activating PLC (hGRPR [10]) | fold less potent than peptide #1 at activating PLC (hNMBR [13]) [fold] | also measured
1 | CCCC[C@H](NC(=O)[C@H](Cc1ccccc1)NC(=O)[C@H](Cc1c[nH]cn1)NC(=O)C[C@@H](NC(=O)[C@@H](NC(=O)[C@H](C)NC(=O)[C@H](Cc1c[nH]c2ccccc12)NC(=O)[C@H](CCC(N)=O)NC(=O)[C@H](N)Cc1ccc(O)cc1)C(C)C)c1ccccc1)C(N)=O [Peptide 2, [DTyr^6, (R)-Apa^11, Phe^13, Nle^14]Bn(6-14)] (H-[dY]QWAV[β3hPhg]HF[Nle]-NH2) | nM affinities | 4–49 fold | 475 | 200–1100 fold | none functioning as a partial agonist | 4–14 fold | 10–25 fold | > 250 | selectivity for hBRS-3 in NCI-N417 cell over hGRPR natively expressed in Hutu cells (hBRS-3 [1]; binding affinities): 13 fold; selectivity for hBRS-3 natively expressed in NCI-N417 cells than hNMBR expressed in NCI-H1299 cells (hBRS-3 [1]; binding affinities): 15 fold; fold lower affinity than the universal ligand, peptide #1 (hBRS-3 [1]; binding, native hBRS-3 in NCI-N417 cells): 3 fold; selectivity for hBRS-3 over hGRPR in the different cells based on binding affinities (hBRS-3 [1]; range over cells): 13–32 fold; selectivity for hBRS-3 over the hNMBR based on binding affinities (hBRS-3 [1]; range over cells): 15 to 46 fold; selectivity for hBRS-3 expressed in Balb cells over hGRPR in the same cells (hBRS-3 [3]): 32 fold; selectivity for hBRS-3 expressed in Balb cells than hNMBR in the same cells (hBRS-3 [3]): 47 fold; selectivity (PLC potency) for hBRS-3 cells over hGRPR containing cells (hBRS-3 [6]; Tables 2-4): 10 to 26 fold; IC50 (hBRS-3 [7]): 4.3 ± 0.2 nM; IC50 (hNMBR [8]): 158 ± 8 nM; IC50 (hNMBR [9]): 66.1 ± 3.4 nM; EC50 (hGRPR [10]): 318 ± 25 nM; EC50 (hGRPR [11]): 58 ± 2 nM; EC50 (hNMBR [12]): 38 ± 1.2 nM; EC50 (hNMBR [13]): 195 ± 11 nM
2 | CCCC[C@H](NC(=O)[C@H](Cc1ccccc1)NC(=O)[C@H](Cc1c[nH]cn1)NC(=O)C[C@@H](NC(=O)[C@@H](NC(=O)[C@H](C)NC(=O)[C@H](Cc1c[nH]c2ccccc12)NC(=O)[C@H](CCC(N)=O)NC(=O)[C@H](N)Cc1ccc(O)cc1)C(C)C)c1ccc(Cl)cc1)C(N)=O [Peptide 3, [DTyr^6, (R)-Apa^11-4Cl, Phe^13, Nle^14]Bn(6-14)] (H-[dY]QWAV[X1]HF[Nle]-NH2) | nM affinities | 2.5–17 fold | 750 | 745–5900 fold | none functioning as a partial agonist | 3.3–10 fold | 123–270 fold | > 1000 | –
